In patent US4677100A, “Cephalosporin derivatives” (Banyu Pharmaceutical Co., Ltd., priority 1984, dated 1987):
Converted amounts (≈) assume the structure as drawn. Where two headings read alike, the source gives them in different places.

Columns and labels:
P. maltophilia IID 1275 = experiment: MIC, agar plate dilution method; assay type: cell-based, Pseudomonas maltophilia; conditions: Stenotrophomonas maltophilia
Method: (§1) The minimum inhibitory concentrations (MIC: μg/ml) of the compounds of the present invention against various microorganisms were measured by an agar plate dilution method (inoculum size: 10^6 CFU/ml) by using Sensitivity Disk Agar (Nissui) in comparison with Cefotaxime and Ceftazidime as comparative compounds.

Gram-positive bacteria = conditions: background of the art; cited from earlier work
P. aeruginosa AKR17 = experiment: MIC, agar plate dilution method; assay type: cell-based, Pseudomonas aeruginosa; conditions: Pseudomonas aeruginosa
Method: as §1

P. aeruginosa AK109 = experiment: MIC, agar plate dilution method; assay type: cell-based, Pseudomonas aeruginosa; conditions: Pseudomonas aeruginosa
Method: as §1

Gram-negative bacteria = conditions: background of the art; cited from earlier work
[1] = test system: Gram-positive bacteria and Gram-negative bacteria; conditions: background of the art; cited from earlier work
E. coli C/Rms149 = experiment: MIC, agar plate dilution method; assay type: cell-based; conditions: for MIC: Escherichia coli, read-out: Minimum Inhibitory Concentration
Method: as §1

A. calcoaceticus No. 14 = experiment: MIC, agar plate dilution method; assay type: cell-based; conditions: Acinetobacter calcoaceticus
Method: as §1

P. mirabilis JY10 = experiment: MIC, agar plate dilution method; assay type: cell-based; conditions: Proteus mirabilis
Method: as §1

E. cloaceae Nek 39 = experiment: MIC, agar plate dilution method; assay type: cell-based; conditions: read-out: Minimum Inhibitory Concentration
Method: as §1

S. marcescens No. 16-2 = experiment: MIC, agar plate dilution method; assay type: cell-based; conditions: Serratia marcescens
Method: as §1

E. coli W3630/Rms212 = experiment: MIC, agar plate dilution method; assay type: cell-based; conditions: for Minimum Inhibitory Concentration: E. coli W3630/Rms212, 10^6 CFU/ml, Sensitivity Disk Agar; for MIC: Escherichia coli, W3630/RMS212, read-out: Minimum Inhibitory Concentration
Method: as §1

E. coli CSH2 = experiment: MIC, agar plate dilution method; assay type: cell-based; conditions: 10^6 CFU/ml, Sensitivity Disk Agar; for MIC: Escherichia coli, read-out: Minimum Inhibitory Concentration
Method: as §1

E. coli ML1410/Rte16 = experiment: MIC, agar plate dilution method; assay type: cell-based; conditions: for MIC: Escherichia coli, ML1410/RTE16, read-out: Minimum Inhibitory Concentration
Method: as §1

E. coli W3630/Rms213 = experiment: MIC, agar plate dilution method; assay type: cell-based; conditions: for Minimum Inhibitory Concentration: E. coli W3630/Rms213, 10^6 CFU/ml, Sensitivity Disk Agar; for MIC: Escherichia coli, W3630/RMS213, read-out: Minimum Inhibitory Concentration
Method: as §1

E. coli CSH = experiment: MIC, agar plate dilution method; assay type: cell-based; conditions: for Minimum Inhibitory Concentration: E. coli CSH, 10^6 CFU/ml, Sensitivity Disk Agar; for MIC: Escherichia coli, read-out: Minimum Inhibitory Concentration
Method: as §1

S. aureus JS-1 = experiment: MIC, agar plate dilution method; assay type: cell-based; conditions: Staphylococcus aureus
Method: as §1

P. vulgaris OB1043 = experiment: MIC, agar plate dilution method; assay type: cell-based; conditions: Proteus vulgaris
Method: as §1

K. pneumoniae No. 42 = experiment: MIC, agar plate dilution method; assay type: cell-based; conditions: Klebsiella pneumoniae
Method: as §1

E. coli NIHJJC-2 = experiment: MIC, agar plate dilution method; assay type: cell-based; conditions: for MIC: Escherichia coli
Method: as §1

S. aureus NIHJJC-1 = experiment: MIC, agar plate dilution method; assay type: cell-based; conditions: Staphylococcus aureus
Method: as §1

C. freundii No. 7 = experiment: MIC, agar plate dilution method; assay type: cell-based; conditions: Citrobacter freundii
Method: as §1

P. vulgaris No. 33 = experiment: MIC, agar plate dilution method; assay type: cell-based; conditions: Proteus vulgaris
Method: as §1

P. cepacia 23 = experiment: MIC, agar plate dilution method; assay type: cell-based, Pseudomonas cepacia
Method: as §1

E. coli Juhl = experiment: treatment of experimental infection of mice; assay type: in vivo; conditions: Escherichia coli
P. aeruginosa D15 = experiment: treatment of experimental infection of mice; assay type: in vivo; conditions: Pseudomonas aeruginosa, D15
S. aureus Smith = experiment: treatment of experimental infection of mice; assay type: in vivo; conditions: Staphylococcus aureus

## CO/N=C(\C(=O)N[C@@H]1C(=O)N2C(C(=O)O)=C(COC(C)=O)CS[C@H]12)c1csc(N)n1 [Cefotaxime, reference compound]
P. maltophilia IID 1275; IID1275, P. maltophilia IID 1275, 10^6 CFU/ml, Sensitivity Disk Agar, read-out: Minimum Inhibitory Concentration
  MIC: > 25 µg/mL
Gram-positive bacteria
  antibacterial activity (in words): relatively poor antibacterial activities
P. aeruginosa AKR17; P. aeruginosa AKR17, 10^6 CFU/ml, Sensitivity Disk Agar, read-out: Minimum Inhibitory Concentration
  MIC: > 25 µg/mL
P. aeruginosa AK109; P. aeruginosa AK109, 10^6 CFU/ml, Sensitivity Disk Agar, read-out: Minimum Inhibitory Concentration
  MIC: 6.25 µg/mL (≈ 13.7 µM)
Gram-negative bacteria
  antibacterial activity (in words): excellent activities
[1]
  antibacterial activity (in words): excellent antibacterial activities
E. coli C/Rms149
  MIC: ≤ 0.05 µg/mL
A. calcoaceticus No. 14; A. calcoaceticus No. 14, 10^6 CFU/ml, Sensitivity Disk Agar, read-out: Minimum Inhibitory Concentration
  MIC: 25 µg/mL (≈ 54.9 µM)
P. mirabilis JY10; P. mirabilis JY10, 10^6 CFU/ml, Sensitivity Disk Agar, read-out: Minimum Inhibitory Concentration
  MIC: ≤ 0.05 µg/mL
E. cloaceae Nek 39; E. cloaceae Nek 39, 10^6 CFU/ml, Sensitivity Disk Agar
  MIC: 0.78 µg/mL (≈ 1.71 µM)
S. marcescens No. 16-2; NO.162, S. marcescens No. 16-2, 10^6 CFU/ml, Sensitivity Disk Agar, read-out: Minimum Inhibitory Concentration
  MIC: 6.25 µg/mL (≈ 13.7 µM)
E. coli W3630/Rms212
  Minimum Inhibitory Concentration: 0.10 µg/mL
  MIC: 0.1 µg/mL (≈ 0.22 µM)
E. coli CSH2
  MIC: ≤ 0.05 µg/mL
E. coli ML1410/Rte16
  MIC: ≤ 0.05 µg/mL
E. coli W3630/Rms213
  Minimum Inhibitory Concentration: 0.20 µg/mL
  MIC: 0.2 µg/mL (≈ 0.439 µM)
E. coli CSH
  Minimum Inhibitory Concentration: 0.10 µg/mL
  MIC: 0.1 µg/mL (≈ 0.22 µM)
S. aureus JS-1; JS1, S. aureus JS-1, 10^6 CFU/ml, Sensitivity Disk Agar, read-out: Minimum Inhibitory Concentration
  MIC: 6.25 µg/mL (≈ 13.7 µM)
P. vulgaris OB1043; P. vulgaris OB1043, 10^6 CFU/ml, Sensitivity Disk Agar, read-out: Minimum Inhibitory Concentration
  MIC: 0.39 µg/mL (≈ 0.856 µM)
K. pneumoniae No. 42; K. pneumoniae No. 42, 10^6 CFU/ml, Sensitivity Disk Agar, read-out: Minimum Inhibitory Concentration
  MIC: ≤ 0.05 µg/mL
E. coli NIHJJC-2; NIHJJC2, E. coli NIHJJC-2, 10^6 CFU/ml, Sensitivity Disk Agar, read-out: Minimum Inhibitory Concentration
  MIC: ≤ 0.05 µg/mL
S. aureus NIHJJC-1; NIHJJC1, S. aureus NIHJJC-1, 10^6 CFU/ml, Sensitivity Disk Agar, read-out: Minimum Inhibitory Concentration
  MIC: 0.78 µg/mL (≈ 1.71 µM)
C. freundii No. 7; C. freundii No. 7, 10^6 CFU/ml, Sensitivity Disk Agar, read-out: Minimum Inhibitory Concentration
  MIC: 0.39 µg/mL (≈ 0.856 µM)
P. vulgaris No. 33; P. vulgaris No. 33, 10^6 CFU/ml, Sensitivity Disk Agar, read-out: Minimum Inhibitory Concentration
  MIC: ≤ 0.05 µg/mL
P. cepacia 23; Burkholderia cepacia, P. cepacia 23, 10^6 CFU/ml, Sensitivity Disk Agar, read-out: Minimum Inhibitory Concentration
  MIC: 3.12 µg/mL (≈ 6.85 µM)

## CC(C)(O/N=C(\C(=O)N[C@@H]1C(=O)N2C(C(=O)[O-])=C(C[n+]3ccccc3)CS[C@H]12)c1csc(N)n1)C(=O)O [Ceftazidime, reference compound]
P. maltophilia IID 1275; IID1275, read-out: Minimum Inhibitory Concentration
  MIC: > 25 µg/mL
E. coli Juhl
  ED50: 0.33 mg/kg
P. aeruginosa AKR17; AKR17, read-out: Minimum Inhibitory Concentration
  MIC: > 25 µg/mL
P. aeruginosa AK109; AK109, read-out: Minimum Inhibitory Concentration
  MIC: 0.39 µg/mL (≈ 0.714 µM)
Gram-negative bacteria
  antibacterial activity (in words): the most excellent cephalosporin derivative against Gram-negative bacteria
P. aeruginosa D15
  ED50: 38 mg/kg
S. aureus Smith
  ED50: 11 mg/kg
E. coli C/Rms149; E. coli C/Rms149, 10^6 CFU/ml, Sensitivity Disk Agar
  Minimum Inhibitory Concentration: 0.20 µg/mL
E. coli C/Rms149
  MIC: 0.2 µg/mL (≈ 0.366 µM)
A. calcoaceticus No. 14; NO.14, read-out: Minimum Inhibitory Concentration
  MIC: 6.25 µg/mL (≈ 11.4 µM)
P. mirabilis JY10; JY10, read-out: Minimum Inhibitory Concentration
  MIC: ≤ 0.05 µg/mL
E. cloaceae Nek 39
  MIC: 0.78 µg/mL (≈ 1.43 µM)
S. marcescens No. 16-2; NO.162, read-out: Minimum Inhibitory Concentration
  MIC: 1.56 µg/mL (≈ 2.85 µM)
E. coli W3630/Rms212
  Minimum Inhibitory Concentration: 0.20 µg/mL
  MIC: 0.2 µg/mL (≈ 0.366 µM)
E. coli CSH2
  Minimum Inhibitory Concentration: 0.1 µg/mL
  MIC: 0.1 µg/mL (≈ 0.183 µM)
E. coli ML1410/Rte16; E. coli ML1410/Rte16, 10^6 CFU/ml, Sensitivity Disk Agar
  Minimum Inhibitory Concentration: 0.20 µg/mL
E. coli ML1410/Rte16
  MIC: 0.2 µg/mL (≈ 0.366 µM)
E. coli W3630/Rms213
  Minimum Inhibitory Concentration: 0.20 µg/mL
  MIC: 0.2 µg/mL (≈ 0.366 µM)
E. coli CSH
  Minimum Inhibitory Concentration: 0.10 µg/mL
  MIC: 0.1 µg/mL (≈ 0.183 µM)
S. aureus JS-1; JS1, read-out: Minimum Inhibitory Concentration
  MIC: > 25 µg/mL
P. vulgaris OB1043; OB1043, read-out: Minimum Inhibitory Concentration
  MIC: ≤ 0.05 µg/mL
K. pneumoniae No. 42; NO.42, read-out: Minimum Inhibitory Concentration
  MIC: 0.39 µg/mL (≈ 0.714 µM)
E. coli NIHJJC-2; E. coli NIHJJC-2, 10^6 CFU/ml, Sensitivity Disk Agar
  Minimum Inhibitory Concentration: 0.1 µg/mL
E. coli NIHJJC-2; NIHJJC2, read-out: Minimum Inhibitory Concentration
  MIC: 0.1 µg/mL (≈ 0.183 µM)
S. aureus NIHJJC-1; NIHJJC1, read-out: Minimum Inhibitory Concentration
  MIC: 3.12 µg/mL (≈ 5.71 µM)
C. freundii No. 7; NO.7, read-out: Minimum Inhibitory Concentration
  MIC: 1.56 µg/mL (≈ 2.85 µM)
P. vulgaris No. 33; NO.33, read-out: Minimum Inhibitory Concentration
  MIC: ≤ 0.05 µg/mL
P. cepacia 23; Burkholderia cepacia, 23, read-out: Minimum Inhibitory Concentration
  MIC: 0.39 µg/mL (≈ 0.714 µM)
